For 2 compounds, IC50 and THT assay Lag time (Ex. 76) results are on record in patent US9474790B2, “Stable, protracted GLP-1/glucagon receptor co-agonists for medical use” (Novo Nordisk A/S, priority 2013, dated 2016).

Numbered stars: 1 amine (or outer) side, 2 acyl side, 3 side chain; on linkers, the order of the positions; unused ones are H or OH. Square brackets hold non-standard residues; d marks the D form. Side chains are listed from the residue outwards. Peptide text beside a SMILES is read from it. * marks the point of attachment. C18 diacid = O=C(O)CCCCCCCCCCCCCCCCC(=O)*; γGlu = O=C(O)[C@H](CCC(=O)[*:2])N[*:1]; AEEA = NCCOCCOCC(=O)O; Aib = CC(C)(N)C(=O)O

One series addresses T1, human GLP-1 receptor (Homo sapiens, UniProt P43220).
T1 construct: expressed in transfected cells; host or cells: BHK cells (parent BHKTS13), clone FCW467-12A/KZ10-1, with CRE luciferase
Put plainly: GLP-1 receptor binding, 125I-GLP-1 displacement SPA on isolated membranes. The note with it: displacement of 125I-GLP-1 from membranes; read-out: IC50 GLP-1R. Here is the method:
The purpose of this assay was to test the in vitro receptor binding activity of the glucagon derivatives of the invention. The receptor binding is a measure of affinity of a compound for the human GLP-1 receptor.
The receptor binding of each compound to the human GLP-1 receptor was measured in a displacement binding assay. In this type of assay a labelled ligand (in this case 125I-GLP-1) is bound to the receptor. Each derivative was added in a series of concentrations to isolated membranes containing the human GLP-1 receptor and displacement of the labelled ligand was monitored. The receptor binding was reported as the concentration at which half of the labelled ligand was displaced from the receptor, the IC50 value.
In order to test the binding of the derivatives to albumin, the assay may be performed in a very low concentration of serum albumin (max. 0.001% final assay concentration) as well as in the presence of a higher concentration of serum albumin (2.0% final assay concentration). An increase of the IC50 value, in the presence of serum albumin indicates an affinity to serum albumin and represents a method to predict a protracted pharmacokinetic profile of the test substance in animal models.
The following chemicals were used in the assay: DMEM w/o phenol red (Gibco 11880-028), Pen/strep (Invitrogen 15140-122), G418 (Invitrogen 10131-027), 1 M Hepes (Gibco 15630), EDTA (Invitrogen 15575-038), PBS (Invitrogen 14190-094), fetal calf serum (Invitrogen 16140-071), EGTA, MgCl2 (Merck 1.05832.1000), Tween 20 (Amresco 0850C335), SPA particles (wheat germ agglutinin (WGA) SPA beads, Perkin Elmer RPNQ0001), [125I]-GLP-1]-(7-36)NH2 (produced in-house), OptiPlate™-96 (Perkin Elmer).
Buffer 1 consisted of 20 mM Na-HEPES plus 10 mM EDTA and pH was adjusted to 7.4.
Buffer 2 consisted of 20 mM Na-HEPES plus 0.1 mM EDTA and pH was adjusted to 7.4.
Assay buffer consisted of 50 mM HEPES supplemented with 5 mM EGTA, 5 mM MgCl2, 0.005% Tween 20 and pH was adjusted to 7.4.
The cells used in this assay (clone FCW467-12A) were BHK cells with BHKTS13 as a parent cell line. The cells express the human GLP-1 receptor.
The cells were grown at 5% CO2 in DMEM, 10% fetal calf serum, 1% Pen/Strep (Penicillin/Streptomycin) and 1.0 mg/ml of the selection marker G418. To make a membrane preparation the cells were grown to approximately 80% confluence. The cells were washed twice in phosphate-buffered saline and harvested. The cells were pelleted using a brief centrifugation and the cell pellet was kept on ice. The cell pellet was homogenised with ULTRA-THURRAX dispersing instrument for 20-30 sec in a suitable amount of buffer 1 (e.g. 10 ml). The homogenate was centrifuged for 15 min. The pellet was re-suspended (homogenised) in 10 ml buffer 2 and centrifuged. This step was repeated once more. The resulting pellet was re-suspended in buffer 2 and the protein concentration was determined. The membranes were aliquoted and stored at minus 80° C.
1. For the receptor binding assay, 50 μl of the assay buffer was added to each well of an assay plate.
2. Test compounds were serially diluted to give the following concentrations: 8×10EE-7 M, 8×10EE-8 M, 8×10EE-9 M, 8×10EE-10 M, 8×10EE-11 M, 8×10EE-12 M and 8×10EE-13 M. Twenty-five μl were added to appropriate wells in the assay plate.
3. Cell membrane aliquots were thawed and diluted to their working concentration. Fifty μl were added to each well in the assay plate.
4. WGA SPA beads were suspended in assay buffer at 20 mg/ml. The suspension was diluted to 10 mg/ml in assay buffer just prior to addition to the assay plate. Fifty μl were added to each well in the assay plate.
5. The incubation was started by adding 25 μl of 480 pM solution of [125I]-GLP-1]-(7-36)NH2 to each well of the assay plate. A 25 μl aliquot was reserved for measuring total counts/well.
6. The assay plate was incubated for 2 h at 30° C.
7. The assay plate was centrifuged for 10 min.
8. The assay plate was read in a Perkin Elmer TopCount NXT instrument. […]

Series [1] is described as follows: Thioflavin T (ThT) fibrillation assay for physical stability. It counts as physicochemical. The note with it: 250 μM in 10 mM HEPES buffer, pH 7.5, 37° C., shaking 960 rpm. The source says:
The purpose of this assay was to assess the physical stability of the glucagon derivatives of the invention in aqueous solutions.
Low physical stability of a peptide may lead to amyloid fibril formation, which is observed as well-ordered, thread-like macromolecular structures in the sample, which eventually may lead to gel formation. This has traditionally been measured by visual inspection of the sample. However, that kind of measurement is very subjective and depending on the observer. Therefore, the application of a small molecule indicator probe is much more advantageous. Thioflavin T (ThT) is such a probe and has a distinct fluorescence signature when binding to fibrils [Naiki et al; Anal. Biochem. 1989 177 244-249; LeVine; Methods. Enzymol. 1999 309 274-284].
The time course for fibril formation can be described by a sigmoidal curve with the following expression [Nielsen et al; Biochemistry 2001 40 6036-6046]:
Here, as depicted in FIG. 1, F is the ThT fluorescence at the time t. The constant t0 is the time needed to reach 50% of maximum fluorescence. The two important parameters describing fibril formation are the lag-time calculated by t0−2τ and the apparent rate constant kapp 1/τ.
Samples were prepared freshly before each assay. Each sample composition is described in the legends. The pH of the sample was adjusted to the desired value using appropriate amounts of concentrated NaOH and HCl. Thioflavin T was added to the samples from a stock solution in H2O to a final concentration of 1 μM.
Sample aliquots of 200 μl (250 μM of the glucagon derivative/analogue in 10 mM HEPES buffer, pH 7.5) were placed in a 96 well microtiter plate (Packard OptiPlate™-96, white polystyrene). Usually, four or eight replica of each sample (corresponding to one test condition) were placed in one column of wells. The plate was sealed with Scotch Pad (Qiagen).
Incubation at given temperature, shaking and measurement of the ThT fluorescence emission were done in a Fluoroskan Ascent FL fluorescence plate reader (Thermo Labsystems). The temperature was set to 37° C. and the plate was incubated with orbital shaking adjusted to 960 rpm with an amplitude of 1 mm. Fluorescence measurement was done using excitation through a 444 nm filter and measurement of emission through a 485 nm filter.
Each run was initiated by incubating the plate at the assay temperature for 10 min. The plate was measured every 20 minutes for a desired period of time. Between each measurement, the plate was shaken and heated as described.
After completion of the ThT assay the four or eight replica of each sample was pooled and centrifuged at 20000 rpm for 30 minutes at 18° C. The supernatant was filtered through a 0.22 μm filter and an aliquot was transferred to a HPLC vial.
The concentration of peptide in the initial sample and in the filtered supernatant was determined by reverse phase HPLC using an appropriate standard as reference. The percentage fraction the concentration of the filtered sample constituted of the initial sample concentration was reported as the recovery.
The measurement points were saved in Microsoft Excel format for further processing and curve drawing and fitting was performed using GraphPad Prism. The background emission from ThT in the absence of fibrils was negligible. The data points were typically a mean of four or eight samples.
The data set may be fitted to Eq. (1).

T1 sequence (P43220 24-463): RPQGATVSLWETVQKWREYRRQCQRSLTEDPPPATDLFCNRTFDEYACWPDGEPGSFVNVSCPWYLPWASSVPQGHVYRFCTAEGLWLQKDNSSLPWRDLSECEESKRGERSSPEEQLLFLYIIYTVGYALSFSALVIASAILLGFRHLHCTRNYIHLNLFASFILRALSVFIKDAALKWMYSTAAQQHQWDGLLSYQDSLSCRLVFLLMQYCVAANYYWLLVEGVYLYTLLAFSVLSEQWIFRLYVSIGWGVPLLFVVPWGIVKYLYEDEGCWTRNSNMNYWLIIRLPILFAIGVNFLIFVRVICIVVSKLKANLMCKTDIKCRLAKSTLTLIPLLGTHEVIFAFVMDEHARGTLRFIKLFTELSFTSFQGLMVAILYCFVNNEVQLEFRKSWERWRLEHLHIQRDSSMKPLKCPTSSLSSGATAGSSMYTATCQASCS

Turning to `CC(C)C[C@H](NC(=O)[C@H](Cc1c[nH]c2ccccc12)NC(=O)[C@H](C)NC(=O)[C@@H](NC(=O)[C@H](Cc1ccccc1)NC(=O)[C@H](CCC(=O)O)NC(=O)[C@H](CCCNC(=N)N)NC(=O)[C@H](C)NC(=O)[C@H](C)NC(=O)[C@H](CCCCN)NC(=O)[C@H](CCCCNC(=O)CC[C@H](NC(=O)CC[C@H](NC(=O)COCCOCCNC(=O)COCCOCCNC(=O)CC[C@H](NC(=O)CCCCCCCCCCCCCCCCC(=O)O)C(=O)O)C(=O)O)C(=O)O)NC(=O)[C@H](CC(=O)O)NC(=O)[C@H](CC(C)C)NC(=O)[C@H](Cc1ccc(O)cc1)NC(=O)[C@H](CCCCN)NC(=O)[C@H](CO)NC(=O)[C@H](CC(C)C)NC(=O)[C@H](CC(=O)O)NC(=O)[C@H](CO)NC(=O)[C@@H](NC(=O)[C@H](Cc1ccccc1)NC(=O)[C@@H](NC(=O)CNC(=O)[C@H](CCC(N)=O)NC(=O)C(C)(C)NC(=O)[C@@H](N)Cc1c[nH]cn1)[C@@H](C)O)[C@@H](C)O)C(C)C)C(=O)N[C@@H](CC(C)C)C(=O)N[C@@H](CC(N)=O)C(=O)N[C@H](C(N)=O)[C@@H](C)O` [Example 17, N^ε29-[(4S)-4-carboxy-4-[[(4S)-4-carboxy-4-[[2-[2-[2-[[2-[2-[2-[[(4S)-4-carboxy-4-(17-carboxyheptadecanoylamino)butanoyl]amino]ethoxy]ethoxy]acetyl]amino]ethoxy]ethoxy]acetyl]amino]butanoyl]amino]butanoyl]-[Aib2,Leu10,Lys16,Lys17,Ala18,Arg20,Glu21,Ala24, Leu27]-Glucagon amide] (H-H[Aib]QGTFTSDLSKYLDK([γGlu-γGlu-AEEA-AEEA-γGlu-C18 diacid])KAAREFVAWLLNT-NH2), the IC50 (as a rule, the concentration that inhibits the measured activity by half) on human GLP-1 receptor was 0.2 nM. In addition, the THT assay Lag time (Ex. 76) in series [1] worked out at 45 h.
As to `CC(C)C[C@H](NC(=O)[C@H](Cc1ccc(O)cc1)NC(=O)[C@H](CCCCN)NC(=O)[C@H](CO)NC(=O)[C@H](CC(C)C)NC(=O)[C@H](CC(=O)O)NC(=O)[C@H](CO)NC(=O)[C@@H](NC(=O)[C@H](Cc1ccccc1)NC(=O)[C@@H](NC(=O)CNC(=O)[C@H](CCC(N)=O)NC(=O)C(C)(C)NC(=O)[C@@H](N)Cc1c[nH]cn1)[C@@H](C)O)[C@@H](C)O)C(=O)N[C@@H](CCC(=O)O)C(=O)N[C@@H](CO)C(=O)N[C@@H](CCCCN)C(=O)N[C@@H](C)C(=O)N[C@@H](C)C(=O)N[C@@H](CCCNC(=N)N)C(=O)N[C@@H](CCC(=O)O)C(=O)N[C@@H](Cc1ccccc1)C(=O)N[C@H](C(=O)N[C@@H](CCC(N)=O)C(=O)N[C@@H](Cc1c[nH]c2ccccc12)C(=O)N[C@@H](CC(C)C)C(=O)N[C@@H](CC(C)C)C(=O)N[C@@H](CCCCNC(=O)CC[C@H](NC(=O)CC[C@H](NC(=O)COCCOCCNC(=O)COCCOCCNC(=O)CC[C@H](NC(=O)CCCCCCCCCCCCCCCCC(=O)O)C(=O)O)C(=O)O)C(=O)O)C(=O)N[C@H](C(N)=O)[C@@H](C)O)C(C)C` [Example 24, N^ε28-[(4S)-4-carboxy-4-[[(4S)-4-carboxy-4-[[2-[2-[2-[[2-[2-[2-[[(4S)-4-carboxy-4-(17-carboxyheptadecanoylamino)butanoyl]amino]ethoxy]ethoxy]acetyl]amino]ethoxy]ethoxy]acetyl]amino]butanoyl]amino]butanoyl]-[Aib2,Leu10,Glu15,Lys17,Ala18,Arg20,Glu21,Leu27, Lys28]-Glucagon amide] (H-H[Aib]QGTFTSDLSKYLESKAAREFVQWLLK([γGlu-γGlu-AEEA-AEEA-γGlu-C18 diacid])T-NH2; N-terminus assumed), on human GLP-1 receptor, the IC50 turned out to be 0.2 nM. The compound further came in with a THT assay Lag time (Ex. 76) in series [1] of 28 h.
